Test results published in US12448378B2, “Fluoropyrrolopyridine compound and application thereof” (Wuxi Life Fountain Biotech Co., Ltd, priority 2020, dated 2025).

Legend:
[1] = system: human gastric cancer SNU-601 xenograft tumor; experiment: In vivo efficacy, human gastric cancer cell SNU-601 CDX xenograft model; set-up: species or system mice; settings: for tumor volume: day 21, CB17 SCID mice
Description: The main objective of this study was to study the antitumor efficacy of the test sample on the xenograft tumor model of human gastric cancer cell SNU-601.
• Species: mice • Strain: CB17 SCID mice • Supplier: Huafukang Laboratory Animal Technology Co., Ltd. • Week age: 6-8 weeks old • Gender: female 2. Cell Culture
Human gastric cancer SNU-601 cells, sourced from KCLB (Cat. No.: 00601), were maintained and passaged by HD Biosciences (Shanghai) Co., Ltd. In vitro culture conditions were RPMI 1640 culture medium (containing 300 mg/L L-glutamine) with 10% fetal bovine serum, 25 mM HEPES and 25 mM sodium bicarbonate, incubated in 5% CO2 incubator at 37° C., and passaged for two or three times a week. When the number of cells reached the requirement, the cells were collected and counted. 0.2 mL (5×10^6 cells) SNU-601 cells (resuspended in DPBS:Matrigel=1:1) were subcutaneously inoculated into the right back of each mouse, and the group administration was started when the average tumor volume reached 147.61 mm^3.
Administration dosage: Compound 1 was orally administered at three doses of 15 mg/kg (administered for 3 days without administration for 4 days), 10 mg/kg (administered for 3 days without administration for 4 days) and 5 mg/kg (continuous administration).
Tumor diameters were measured with vernier calipers three times a week. The tumor volume was calculated by the formula: V=0.5×a×b^2, wherein a and b referred to the long and short diameter of the tumor, respectively. The calculation formula of relative tumor volume (RTV) was: RTV (%)=(Vt/V1)×100; the calculation formula of animal body weight change (BWC) was: BWC (%)=(BWt−BW1)/BW1×100, wherein V1 and BW1 referred to the tumor volume and body weight of a certain animal on the day of group administration, and Vt and BWt referred to the tumor volume and body weight of a certain animal at a certain measurement.
The antitumor efficacy of the compounds was evaluated by TGI (%) or relative tumor proliferation rate T/C (%). Relative tumor proliferation rate T/C (%)=TRTV/CRTV×100 (TRTV: mean RTV of the treatment group; CRTV: mean RTV of the negative control group). The relative tumor volume (RTV) was calculated according to the results of tumor measurement, and the calculation formula was RTV=Vt/V1, wherein V1 was the tumor volume measured at the time of group administration (that is, D1), Vt was the tumor volume at a certain measurement, and the data of TRTV and CRTV were taken on the same day.
TGI (%) reflected the tumor growth inhibition rate. TGI (%)=[(1−(average tumor volume at the end of administration of a certain treatment group−average tumor volume at the beginning of administration of this treatment group))/(average tumor volume at the end of treatment in the solvent control group−average tumor volume at the beginning of treatment in the solvent control group)]×100.
After the experiment, the tumor weight would be detected, and the percentage of Tweight/Cweight would be calculated. Tweight and Cweight referred to the tumor weight of the administration group and the solvent control group, respectively.
In this experiment, the xenograft tumor model of human gastric cancer cell SNU601 was used to evaluate the in vivo efficacy of the test compounds. During the whole administration period, no animals were discontinued due to body weight loss of more than 10%, and the efficacy test was terminated on the 21st day after administration.

[2] = target: human ATR kinase (ATR/ATRIP (h)) (Homo sapiens (Human), UniProt Q13535); experiment: ATR enzyme activity in vitro (HTRF kinase assay); assay type: biochemical; settings: 10 μM ATP, GST-cMyc-p53 substrate
Chain of human ATR kinase (ATR/ATRIP (h)) (Q13535 whole entry): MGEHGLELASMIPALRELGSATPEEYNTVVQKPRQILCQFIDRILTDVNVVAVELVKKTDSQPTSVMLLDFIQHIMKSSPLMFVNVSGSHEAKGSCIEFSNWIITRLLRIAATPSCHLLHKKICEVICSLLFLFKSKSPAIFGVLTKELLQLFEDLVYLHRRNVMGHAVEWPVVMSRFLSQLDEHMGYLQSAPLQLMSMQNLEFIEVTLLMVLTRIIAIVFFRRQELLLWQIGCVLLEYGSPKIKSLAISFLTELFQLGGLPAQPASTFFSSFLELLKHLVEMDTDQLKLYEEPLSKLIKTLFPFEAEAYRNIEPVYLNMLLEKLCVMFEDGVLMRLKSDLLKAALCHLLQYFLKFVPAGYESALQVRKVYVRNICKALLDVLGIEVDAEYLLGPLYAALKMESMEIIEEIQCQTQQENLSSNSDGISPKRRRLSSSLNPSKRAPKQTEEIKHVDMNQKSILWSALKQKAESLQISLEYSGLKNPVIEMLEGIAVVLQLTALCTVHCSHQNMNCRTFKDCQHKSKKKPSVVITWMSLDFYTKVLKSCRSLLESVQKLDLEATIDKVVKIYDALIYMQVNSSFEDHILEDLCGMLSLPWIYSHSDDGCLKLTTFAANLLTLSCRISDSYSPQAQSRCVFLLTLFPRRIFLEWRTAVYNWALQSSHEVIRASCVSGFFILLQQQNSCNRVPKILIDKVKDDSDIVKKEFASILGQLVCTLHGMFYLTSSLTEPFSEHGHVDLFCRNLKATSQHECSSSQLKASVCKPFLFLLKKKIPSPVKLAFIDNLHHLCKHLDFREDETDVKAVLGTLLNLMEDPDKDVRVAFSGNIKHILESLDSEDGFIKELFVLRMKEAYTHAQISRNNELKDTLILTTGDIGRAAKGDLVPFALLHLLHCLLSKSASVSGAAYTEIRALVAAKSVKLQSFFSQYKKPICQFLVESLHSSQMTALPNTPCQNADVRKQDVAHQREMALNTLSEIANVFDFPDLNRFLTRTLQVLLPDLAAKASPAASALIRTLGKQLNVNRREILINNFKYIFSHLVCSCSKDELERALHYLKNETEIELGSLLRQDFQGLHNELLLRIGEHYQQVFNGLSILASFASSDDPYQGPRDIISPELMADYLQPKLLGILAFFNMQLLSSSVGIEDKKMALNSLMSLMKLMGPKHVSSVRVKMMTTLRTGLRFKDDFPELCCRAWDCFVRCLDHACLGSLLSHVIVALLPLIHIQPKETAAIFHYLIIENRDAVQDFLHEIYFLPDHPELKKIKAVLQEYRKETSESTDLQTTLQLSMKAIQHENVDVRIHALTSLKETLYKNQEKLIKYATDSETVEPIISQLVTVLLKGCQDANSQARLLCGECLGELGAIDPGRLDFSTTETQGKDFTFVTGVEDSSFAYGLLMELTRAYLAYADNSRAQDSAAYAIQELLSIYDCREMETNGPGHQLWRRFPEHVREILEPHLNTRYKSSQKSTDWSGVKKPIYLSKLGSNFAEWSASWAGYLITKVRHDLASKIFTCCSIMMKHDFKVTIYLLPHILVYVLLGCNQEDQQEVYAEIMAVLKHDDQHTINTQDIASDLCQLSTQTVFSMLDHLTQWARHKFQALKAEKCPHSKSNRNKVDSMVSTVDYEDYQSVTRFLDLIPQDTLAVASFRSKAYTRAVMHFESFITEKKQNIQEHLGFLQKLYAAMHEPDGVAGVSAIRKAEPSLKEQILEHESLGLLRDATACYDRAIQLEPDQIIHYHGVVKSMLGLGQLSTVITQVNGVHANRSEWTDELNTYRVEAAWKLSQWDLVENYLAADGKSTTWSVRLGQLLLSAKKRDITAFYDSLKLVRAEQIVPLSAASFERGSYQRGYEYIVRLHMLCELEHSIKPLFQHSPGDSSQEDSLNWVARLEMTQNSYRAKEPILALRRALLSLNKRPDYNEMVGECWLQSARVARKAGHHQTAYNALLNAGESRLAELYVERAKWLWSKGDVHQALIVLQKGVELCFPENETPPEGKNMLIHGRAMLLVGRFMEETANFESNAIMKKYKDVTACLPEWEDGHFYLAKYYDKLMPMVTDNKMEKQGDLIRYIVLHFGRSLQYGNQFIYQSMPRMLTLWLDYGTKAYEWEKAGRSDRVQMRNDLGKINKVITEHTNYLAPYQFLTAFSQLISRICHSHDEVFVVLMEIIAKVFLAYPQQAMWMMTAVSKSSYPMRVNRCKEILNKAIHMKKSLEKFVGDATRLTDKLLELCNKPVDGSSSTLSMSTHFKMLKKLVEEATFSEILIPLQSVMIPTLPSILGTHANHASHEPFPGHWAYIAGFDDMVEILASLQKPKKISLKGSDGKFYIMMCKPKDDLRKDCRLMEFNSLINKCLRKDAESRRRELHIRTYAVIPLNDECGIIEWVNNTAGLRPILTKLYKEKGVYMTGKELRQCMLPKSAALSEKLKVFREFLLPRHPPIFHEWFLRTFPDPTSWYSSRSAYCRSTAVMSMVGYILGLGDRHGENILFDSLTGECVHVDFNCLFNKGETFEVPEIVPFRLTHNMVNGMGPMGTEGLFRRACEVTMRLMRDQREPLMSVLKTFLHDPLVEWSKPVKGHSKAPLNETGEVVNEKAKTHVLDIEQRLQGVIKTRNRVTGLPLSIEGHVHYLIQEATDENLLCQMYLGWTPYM
Chain of human ATR kinase (ATR/ATRIP (h)) (Q8WXE1 whole entry partner): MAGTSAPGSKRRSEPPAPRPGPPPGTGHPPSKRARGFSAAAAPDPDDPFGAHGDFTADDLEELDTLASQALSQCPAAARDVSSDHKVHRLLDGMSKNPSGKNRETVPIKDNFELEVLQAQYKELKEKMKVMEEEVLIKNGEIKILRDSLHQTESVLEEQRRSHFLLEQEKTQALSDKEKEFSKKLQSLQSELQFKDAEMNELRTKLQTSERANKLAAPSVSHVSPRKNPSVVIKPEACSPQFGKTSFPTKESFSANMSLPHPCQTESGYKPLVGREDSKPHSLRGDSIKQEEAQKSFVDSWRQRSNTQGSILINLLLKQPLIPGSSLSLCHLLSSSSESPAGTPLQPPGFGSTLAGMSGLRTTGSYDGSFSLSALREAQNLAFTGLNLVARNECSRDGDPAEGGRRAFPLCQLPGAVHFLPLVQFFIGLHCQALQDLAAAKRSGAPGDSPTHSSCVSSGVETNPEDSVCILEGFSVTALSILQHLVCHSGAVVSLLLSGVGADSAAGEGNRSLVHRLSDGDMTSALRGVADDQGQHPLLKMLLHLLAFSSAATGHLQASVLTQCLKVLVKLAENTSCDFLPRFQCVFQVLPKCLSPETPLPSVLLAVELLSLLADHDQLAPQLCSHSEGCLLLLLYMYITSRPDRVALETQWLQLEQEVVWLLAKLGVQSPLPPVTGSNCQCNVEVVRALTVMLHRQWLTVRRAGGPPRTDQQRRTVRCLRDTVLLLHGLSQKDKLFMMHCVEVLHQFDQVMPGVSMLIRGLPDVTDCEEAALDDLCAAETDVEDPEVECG
Protocol: The inhibitory activity of the test compounds against human ATR kinase was evaluated by measuring IC50 value.
ATR/ATRIP (h) was incubated in detection buffer containing 50 nM GST-cMyc-p53 and Mg/ATP (10 μM). The reaction was initiated by adding Mg/ATP mixture. After incubation at room temperature for 30 minutes, the reaction was terminated by adding a termination solution containing EDTA. Finally, a detection buffer containing d^2-labeled anti-GST monoclonal antibody and europium-labeled anti-phospho-Ser15 antibody against phosphorylated p53 were added. Plates were then read in time-resolved fluorescence mode for homogeneous time resolution.
The fluorescence (HTRF) signal was determined according to the formula HTRF=10000×(Em665 nm/Em620 nm).

[3] = In vivo pharmacokinetics in female Balb/c Nude mice
Protocol: Test sample: On the basis of the above experiments, compound 1 was selected for further experiments.
Experimental methods: The purpose of this study was to determine the pharmacokinetic parameters of compound 1 and to calculate its oral bioavailability in female Balb/c Nude mice. This project used 4 female Balb/c Nude mice. Two mice were administered intravenously at a dose of 1 mg/kg, and plasma samples were collected at 0 hours (before administration) and 0.0833, 0.25, 0.5, 1, 2, 4, 6, 8, 24 hours after administration. The other two mice were administered orally by gavage at a dose of 10 mg/kg or 25 mg/kg, and plasma samples were collected at 0 hours (before administration) and 0.25, 0.5, 1, 2, 4, 6, 8, 24 hours after administration. The collected samples were then analyzed by LC/MS/MS and data were collected. The collected analysis data were used to calculate the relevant pharmacokinetic parameters by Phoenix WinNonlin 6.2.1 software.

tumor cell line LoVo = experiment: In vitro LoVo cell proliferation inhibition (CellTiter-Glo); assay type: cell-based; settings: Homo sapiens, LoVo cells
Protocol: In this experiment, the inhibitory effect of the compounds on cell proliferation was studied by detecting the effect of the compounds on the in vitro cell activity in the tumor cell line LoVo.
CellTiter-Glo Luminescent Cell Viability Assay
The following steps were carried out according to the instructions of PromegaCellTiter-Glo luminescent cell viability assay kit (Promega-G7573).
(1) CellTiter-Glo buffer was thawed and placed at room temperature.
(2) CellTiter-Glo substrate was placed at room temperature.
(3) CellTiter-Glo working solution was prepared by adding CellTiter-Glo buffer to a vial of CellTiter-Glo substrate to dissolve the substrate.
(4) Slowly vortexed to fully dissolve. […]
(8) The culture plate was left at room temperature for 10 minutes to stabilize the luminescence signal.
(9) The luminescence signal was detected on the SpectraMax i3x of Molecular Devices plate reader.
The Inhibition rate (IR) of the test compound was calculated using the following formula: IR (%)=(1−(RLU compound−RLU blank control)/(RLU solvent control−RLU blank control))*100%. The inhibition rates of different concentrations of the compounds were calculated in Excel, and then the inhibition curves were made by GraphPad Prism software and the related parameters were calculated, including the minimum inhibition rate, the maximum inhibition rate and IC50.

[4] = whole experimental period, compound 1 administration group
[5] = mouse, plasma, intravenous 1 mg/kg

For `Cc1nnn(C)c1-c1cc(-c2c(F)ncc3[nH]ccc23)nc(N2CCOC[C@H]2C)c1` [Compound 1], the tumor volume ([1]; oral 5 mg/kg (continuous administration)) was 229.99±24.42 mm^3, the “tumor inhibition rate TGI” value ([1]; oral 5 mg/kg (continuous administration), day 21, p<0.01) was 88.61% and the tumor volume ([1]; oral 10 mg/kg (3 days on, 4 days off)) was 136.74±14.46 mm^3. The “tumor inhibition rate TGI” value ([1]; oral 10 mg/kg (3 days on, 4 days off), day 21, P<0.01) was 101.08%, the tumor volume ([1]; oral 15 mg/kg (3 days on, 4 days off)) was 108.74±9.67 mm^3 and the “tumor inhibition rate TGI” value ([1]; oral 15 mg/kg (3 days on, 4 days off), day 21, p<0.01) was 104.81%. For the same molecule, the animal state [1, 4] was “had no abnormality”, the “body weight of the animals” value [1, 4] was “did not decrease significantly” and the IC50 [2] was 33 nM. For the same molecule, the C0 ([3]; mouse, intravenous 1 mg/kg, plasma) was 2.8 µM, the AUC(0-t) [3, 5] was 2.55 µM·h and the clearance [3, 5] was 15.8 mL/min/kg. The half-life [3, 5] was 1.32 h, the Vd ([3]; mouse, plasma, intravenous 1 mg/kg, read-out: Vdss) was 1.65 L/kg and the AUC(0-t) ([3]; mouse, plasma, oral 10 mg/kg) was 23 µM·h. The Cmax ([3]; mouse, plasma, oral 10 mg/kg) was 9.56 µM, the half-life ([3]; mouse, plasma, oral 10 mg/kg) was 1.4 h and the AUC(0-t) ([3]; mouse, plasma, oral 25 mg/kg) was 82 µM·h. The Cmax ([3]; mouse, plasma, oral 25 mg/kg) was 17.4 µM, the half-life ([3]; mouse, plasma, oral 25 mg/kg) was 3.8 h and the F ([3]; oral 10 mg/kg vs intravenous 1 mg/kg) was 91.6%. For the same molecule, the IC50 (tumor cell line LoVo) was 102 nM.

Work on `Cc1nnc(C)n1-c1cc(-c2c(F)ncc3[nH]ccc23)nc(N2CCOC[C@H]2C)c1` [Compound 2] yielded an IC50 [2] of 69 nM and an IC50 (tumor cell line LoVo) of 234 nM.

With `C[C@@H]1COCCN1c1cc(-c2cccn2C)cc(-c2c(F)ncc3[nH]ccc23)n1` [Compound 5] the IC50 [2] was 336 nM.

`C[C@@H]1COCCN1c1cc(-c2cnnn2C)cc(-c2c(F)ncc3[nH]ccc23)n1` [Compound 6] gave an IC50 [2] of 211 nM.

Work on `Cc1ncccc1-c1cc(-c2c(F)ncc3[nH]ccc23)nc(N2CCOC[C@H]2C)c1` [Compound 7] yielded an IC50 [2] of 78 nM.

`Cc1ccccc1-c1cc(-c2c(F)ncc3[nH]ccc23)nc(N2CCOC[C@H]2C)c1` [Compound 8] showed an IC50 [2] of 425 nM.

In the case of `Cc1n[nH]c(C)c1-c1cc(-c2c(F)ncc3[nH]ccc23)nc(N2CCOC[C@H]2C)c1` [Compound 9], the IC50 [2] is reported as 31 nM.

For `COc1cc(C)c(-c2cc(-c3c(F)ncc4[nH]ccc34)nc(N3CCOC[C@H]3C)c2)cn1` [Compound 10], the IC50 [2] was 182 nM.

In the case of `Cc1nn(C)cc1-c1cc(-c2c(F)ncc3[nH]ccc23)nc(N2CCOC[C@H]2C)c1` [Compound 13], the IC50 [2] is reported as 500 nM.

With `Cc1cnn(C)c1-c1cc(-c2c(F)ncc3[nH]ccc23)nc(N2CCOC[C@H]2C)c1` [Compound 14] the IC50 [2] was 57 nM.

`C[C@@H]1COCCN1c1cc(-c2ccnn2C)cc(-c2c(F)ncc3[nH]ccc23)n1` [Compound 15] gave an IC50 [2] of 204 nM.

In the case of `Cc1noc(C)c1-c1cc(-c2c(F)ncc3[nH]ccc23)nc(N2CCOC[C@H]2C)c1` [Compound 16], the IC50 [2] is reported as 78 nM.
